According to US12613249B2 (THE ROYAL INSTITUTION FOR THE ADVANCEMENT OF LEARNING / …, priority 2019, dated 2026):
Square brackets hold non-standard residues; d marks the D form. Peptide text beside a SMILES is read from it.

Key:
[1] = Ex-vivo stability in mouse plasma, MALDI-TOF MS; format: in vitro ADME, C57BL/6 mice; conditions: 37° C., 24 h
Description: The stability of D-AIP in mouse plasma, blood and liver S-9 fraction was investigated to ascertain the metabolic resistance towards proteases and enzymatic activities in these matrices. Whole mouse blood obtained from healthy C57BL/6 male and female mice (6 mice in total) were collected in lithium heparin containing tubes, pooled and stored at 4° C. prior to its use. A fraction of the pooled blood was immediately centrifuged at 1500×g for 10 min at 4° C. to obtain the plasma. The whole blood and plasma samples were spiked with PBS (as control) or AIP (L-AIP, D-AIP or sD-AIP respectively) to make a final concentration of 1 ug/mL and incubated at 37° C. Initial samples were withdrawn to represent t=0 prior to incubation and others were withdrawn 1, 3 and 24 h respectively. Fresh mouse liver also obtained from C57BL/6 male and female mice were pooled, homogenized in 0.15 M Potassium chloride (KCl) and centrifuged at 9000×g. […] The samples were then vigorously mixed for 30 s to facilitate extraction and centrifuged for 10 minutes at 13000 rpm, the supernatant was subjected to sample clean up by C18 ZipTip (EMD Millipore Corporation), the eluates were spotted with CHCA matrix on the ground steel MALDI-TOF target and analyzed with MALDI-TOF MS. […]

[2] = Tolerability of single oral doses; format: in vivo, C57BL/6 mice; conditions: single oral doses of 10, 30 and 100 mg/kg, female and male mice
Source text: Animal care and all animal experiments were undertaken with federal guidelines and approval of the Institutional Animal Ethical Committee of McGill University, Montreal, Canada (Protocol Application Number: 2017-7880) and adequate measures were taken to minimize pain or discomfort. C57BL/6 mice were purchased from Charles River laboratories, a total of 144 healthy (7-9 weeks old) male and female (20-25 g) were grouped accordingly and housed in polycarbonate cages, (three mice per cage per sex) in air-conditioned rooms with a 12 h light/dark cycle. Animals were allowed unlimited access to drinking water and standard mouse chow during the study. Animals (n=3) were orally dosed with D-AIP using an oral gavage at 10, 30 and 100 mg/kg respectively prepared in phosphate buffered saline (PBS). […] Pharmacokinetic parameters area under the curve (AUC), maximum concentration reached (Cmax), time at which maximum concentration is reached (Tmax). elimination rate constant (A), elimination half-life (t1/2), apparent total clearance from plasma after oral administration (CI/F), apparent volume of distribution (Vd) and mean residence time (MRT) were calculated using PKSolver, a freely available menu-driven add-in program for Microsoft Excel written in Visual Basic for Applications (VBA), for solving problems in pharmacokinetics.

[3] = Ex-vivo stability in mouse liver S9-fraction, MALDI-TOF MS; format: in vitro ADME, C57BL/6 mice
Description: The stability of D-AIP in mouse plasma, blood and liver S-9 fraction was investigated to ascertain the metabolic resistance towards proteases and enzymatic activities in these matrices. Whole mouse blood obtained from healthy C57BL/6 male and female mice (6 mice in total) were collected in lithium heparin containing tubes, pooled and stored at 4° C. prior to its use. A fraction of the pooled blood was immediately centrifuged at 1500×g for 10 min at 4° C. to obtain the plasma. The whole blood and plasma samples were spiked with PBS (as control) or AIP (L-AIP, D-AIP or sD-AIP respectively) to make a final concentration of 1 ug/mL and incubated at 37° C. Initial samples were withdrawn to represent t=0 prior to incubation and others were withdrawn 1, 3 and 24 h respectively. Fresh mouse liver also obtained from C57BL/6 male and female mice were pooled, homogenized in 0.15 M Potassium chloride (KCl) and centrifuged at 9000×g. The supernatant represents liver homogenate (S-9) fraction which was mixed with other buffers to formulate the liver S-9 mix as previously described (Kolrep et al., 2017, Toxicol In Vitro, 42:161-170). Liver S-9 mix were spiked with AIP to make a final concentration of 1 μg/mL (L-AIP, D-AIP or sD-AIP respectively) and incubated at 37° C. Just after the addition of NADPH, 100 μL aliquot which represents t=0 samples were withdrawn and others were sampled accordingly at predetermined time points. 400 μL of ice cold MeOH was added to the spiked plasma, blood or liver S-9 fraction respectively, to precipitate the microsomal protein. The samples were then vigorously mixed for 30 s to facilitate extraction and centrifuged for 10 minutes at 13000 rpm, the supernatant was subjected to sample clean up by C18 ZipTip (EMD Millipore Corporation), the eluates were spotted with CHCA matrix on the ground steel MALDI-TOF target and analyzed with MALDI-TOF MS. Applying the t=0 peak area as 100% the intensities of the other time points were compared relatively for interpretation. […]

C[C@H](O)[C@@H](NC(=O)CNC(=O)[C@H](N)CCCNC(=N)N)C(=O)N[C@H](Cc1ccccc1)C(=O)N[C@H](CCC(=O)O)C(=O)NCC(=O)N[C@H](CCCCN)C(=O)N[C@H](Cc1ccccc1)C(=O)O [D-AIP] (H-[dR]G[dT][dF][dE]G[dK][dF]-OH; N-terminus and C-terminus assumed)
stability, MALDI-TOF MS signal (941 m/z) [1]: relatively stable over 24 h
tolerability [2]: well-tolerated with no detectable vital signs of abnormalities
stability, MALDI-TOF MS signal (941 m/z) ([3]; mouse liver S9-fraction, 37° C., 24 h): relatively stable over 24 h
signal intensity compared to the unincubated sample ([3]; mouse liver S-9 fraction, after 24 h): three-fold decreased intensity
